The values that follow come from article PMC6372602, “On-target and off-target effects of novel orthosteric and allosteric activators of GPR84” (Scientific Reports, 2019).

For orientation: Kd means the concentration at which binding is half-saturated. Read a high Kd as a looser complex. What is called pEC50 is the EC50 on a negative log10 scale, so that one unit is a factor of ten. The term pIC50 denotes the negative decadic logarithm of the IC50, by convention in mol/L. Read a low pIC50 as a high IC50.

Assay [1] concerns the target T1, GPR84 (THP-1 cells) (Homo sapiens, UniProt Q9NQS5).
T1 construct: endogenous receptor in membranes of LPS-treated THP-1 monocytes
Description: saturation radioligand binding, membranes. As to conditions: labelled compound; antagonist; LPS-treated cells; […] °C, pH […].

For assay [2], the target named is T2, human GPR35a (Homo sapiens, UniProt Q9HC97).
T2 construct: gene GPR35; C-terminal eYFP tag, HEK293 cells co-transfected with luciferase-tagged β-arrestin-2
The experiment in a line: β-arrestin-2 recruitment BRET, HEK293 cells. It is filed as cell-based. As to conditions: agonist mode. A general note: Recruitment of arrestin is a read-out of receptor activation apart from second messengers.

Assay [3] has as its target T3, mouse GPR35 (Mus musculus, UniProt Q9ES90).
T3 construct: C-terminal eYFP tag, HEK293 cells co-transfected with luciferase-tagged β-arrestin-2
The experiment in a line: β-arrestin-2 recruitment BRET, HEK293 cells. Format: cell-based. As to conditions: agonist mode.

In assay [4] the target is T4, mouse GPR84-Gαi2 (Mus musculus, UniProt Q8CIM5).
T4 construct: N-terminal FLAG-tagged mouse GPR84 fused to Gαi2 (transducer / reporter; silent C636T in Gαi2); doxycycline-inducible Flp-In T-REx 293 cells; membranes
The experiment in a line: […]GTPγS binding, membranes. It is filed as biochemical. As to conditions: […] °C, pH […] GDP. (GTPγS is a poorly hydrolysed GTP analogue; its binding reports G protein activation.)

Assay [5] concerns the target T5, mouse GPR84 (RAW264.7 cells) (Mus musculus, UniProt Q8CIM5). Description: […]GTPγS binding, membranes. Format: biochemical. As to conditions: agonist, LPS-treated cells, […] °C, pH […] GDP.
Assay [6] concerns the target T1, GPR84 (THP-1 cells). Description: inhibition of agonist-stimulated […]GTPγS binding, membranes. Format: biochemical. The following applies: antagonist, non-competitive; LPS-treated cells; versus EC80 2-HTP.
The target in assay [7] is T5, mouse GPR84 (RAW264.7 cells). The description is as above. It is filed as biochemical. The following applies: antagonist; LPS-treated cells; versus EC80 2-HTP.
In assay [8] the target is T6, human GPR84-Gαi2 (Homo sapiens, UniProt Q9NQS5).
T6 construct: doxycycline-inducible Flp-In T-REx 293 cells; membranes
The description is as above. Format: biochemical. As to conditions: antagonist, non-competitive; versus EC80 2-HTP.

Assay [9] deals with T4, mouse GPR84-Gαi2. The assay is described as above. It is filed as biochemical. As to conditions: antagonist; versus EC80 2-HTP.
For assay [10], the target named is T6, human GPR84-Gαi2. The experiment in a line: […]GTPγS binding, membranes. It is filed as biochemical. As to conditions: partial agonist, allosteric; […] °C, pH […] GDP.

T5 sequence (Q8CIM5 whole entry): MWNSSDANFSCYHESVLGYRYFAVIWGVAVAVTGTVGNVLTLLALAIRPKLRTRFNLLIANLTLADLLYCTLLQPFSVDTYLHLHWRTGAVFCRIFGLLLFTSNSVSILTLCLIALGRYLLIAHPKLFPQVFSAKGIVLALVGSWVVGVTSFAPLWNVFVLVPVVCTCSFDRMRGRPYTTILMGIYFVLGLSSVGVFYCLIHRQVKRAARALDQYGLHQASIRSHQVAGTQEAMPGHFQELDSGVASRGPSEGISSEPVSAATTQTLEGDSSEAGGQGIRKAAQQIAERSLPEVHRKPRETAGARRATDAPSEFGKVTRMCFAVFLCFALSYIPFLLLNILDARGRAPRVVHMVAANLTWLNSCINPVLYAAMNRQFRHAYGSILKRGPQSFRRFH
T3 sequence (Q9ES90 whole entry): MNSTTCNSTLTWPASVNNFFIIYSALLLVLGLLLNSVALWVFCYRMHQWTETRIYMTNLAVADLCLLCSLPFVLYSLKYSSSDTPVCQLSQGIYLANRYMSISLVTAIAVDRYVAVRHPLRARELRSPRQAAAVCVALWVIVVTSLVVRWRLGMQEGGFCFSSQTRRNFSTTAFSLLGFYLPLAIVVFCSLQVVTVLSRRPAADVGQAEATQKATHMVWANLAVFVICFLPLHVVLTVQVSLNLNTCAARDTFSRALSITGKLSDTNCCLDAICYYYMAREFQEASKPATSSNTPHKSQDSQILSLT
T6 sequence (Q9NQS5 whole entry): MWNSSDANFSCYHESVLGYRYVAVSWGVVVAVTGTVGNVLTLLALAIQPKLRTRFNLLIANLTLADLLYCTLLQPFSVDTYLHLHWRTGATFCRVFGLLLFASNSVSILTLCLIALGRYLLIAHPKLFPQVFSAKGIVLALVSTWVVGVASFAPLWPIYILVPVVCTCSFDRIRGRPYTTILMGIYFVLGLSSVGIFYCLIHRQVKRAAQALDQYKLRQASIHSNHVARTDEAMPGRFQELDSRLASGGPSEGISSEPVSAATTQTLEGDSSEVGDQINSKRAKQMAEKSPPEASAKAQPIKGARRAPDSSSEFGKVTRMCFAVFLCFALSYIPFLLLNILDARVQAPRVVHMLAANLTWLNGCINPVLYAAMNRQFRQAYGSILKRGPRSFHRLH
T1 sequence (Q9NQS5 whole entry): as above
T2 sequence (Q9HC97 whole entry): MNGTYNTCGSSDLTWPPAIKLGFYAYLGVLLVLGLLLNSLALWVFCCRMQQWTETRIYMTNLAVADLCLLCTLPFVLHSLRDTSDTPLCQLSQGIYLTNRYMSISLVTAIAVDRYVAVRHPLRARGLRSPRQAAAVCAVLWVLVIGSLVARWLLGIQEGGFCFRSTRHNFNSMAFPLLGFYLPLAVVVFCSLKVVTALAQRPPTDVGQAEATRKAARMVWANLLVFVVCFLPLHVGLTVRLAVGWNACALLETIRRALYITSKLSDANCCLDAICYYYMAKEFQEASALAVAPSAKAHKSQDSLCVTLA

Compound [^3H]9543 returned a Kd in assay [1] of 180 ± 20 pM.
For the compound `CCCCCCSc1nc(O)cc(O)n1` [2-HTP, 2-(hexylthiol)pyrimidine-4,6 diol], the “β-arrestin-2 recruitment BRET, HEK293 cells” value in assay [2] is 2-HTP was also unable to activate human GPR35; in assay [3], “neither PSB-16671 nor 2-HTP was able to activate mouse GPR35”. Further, the values for the pEC50 in assay [4] (agonist) and in assay [5] were 7.52 ± 0.11 and 7.58 ± 0.08, respectively.
Regarding `O=c1nc(OCC2COCCO2)cc2n1CCc1cc(C#CCNc3ccccc3)ccc1-2` (centres unmarked) [compound 107, 2-([1,4]dioxan-2-ylmethoxy)-9-(3-phenylamino-prop-1-ynyl)-6,7-dihydro-pyrimido[6,1-a]isoquinolin-4-one], the pIC50 in [6] is recorded as 7.86 ± 0.02; in [7], 6.50 ± 0.06; in assay [8], 8.14 ± 0.06; in [9] it was 6.90 ± 0.05.
Consider `Fc1cc(F)c2[nH]cc(Cc3c[nH]c4c(F)cc(F)cc34)c2c1` [PSB-16671, di(5,7-difluoro-1H-indole-3-yl)methane], for which, in assay [3], the “β-arrestin-2 recruitment BRET, HEK293 cells” value is given as “neither PSB-16671 nor 2-HTP was able to activate mouse GPR35”. For the same compound, the pEC50 in [4] (agonist, allosteric) stood at 6.53 ± 0.07; in assay [5] (allosteric) it was 6.75 ± 0.10.
Regarding `c1ccc2c(Cc3c[nH]c4ccccc34)c[nH]c2c1` [DIM], in [10], the EC50 entry is “Equivalent studies using DIM confirmed the higher potency of PSB-16671”. The same compound gave a pEC50 in assay [4] (partial agonist, allosteric) of 5.37 ± 0.08.
